One may read the MIC as the lowest concentration that inhibits growth of the organism.

This passage reports MIC results from ChEMBL document CHEMBL1148727, “Discovery of 1,4-dihydroxy-2-naphthoate [corrected] prenyltransferase inhibitors: new drug leads for multidrug-resistant gram-positive pathogens” (2007).

Converted amounts (≈) assume the structure as drawn. A value given as a limit tells only on which side of the number the result lay.

Assay type in all cases: functional
Test [1] relates to Mycobacterium tuberculosis. The test can be described thus: Antibacterial activity against isoniazid-resistant Mycobacterium tuberculosis H37Rv after 18 hrs by agar plate dilution method.
The subject of test [2] is Mycobacterium tuberculosis variant bovis BCG. The test can be described thus: Antibacterial activity against Mycobacterium bovis BCG Tokyo after 18 hrs by agar plate dilution method.
The test system of test [3] is Mycobacterium tuberculosis. Description: Antibacterial activity against rifampicin-resistant Mycobacterium tuberculosis H37Rv after 18 hrs by agar plate dilution method.

For the compound `CO[C@H]1/C=C/O[C@@]2(C)Oc3c(C)c(O)c4c(O)c(c(/C=N/N5CCN(C)CC5)c(O)c4c3C2=O)NC(=O)/C(C)=C\C=C\[C@H](C)[C@H](O)[C@@H](C)[C@@H](O)[C@@H](C)[C@H](OC(C)=O)[C@@H]1C` [RIFAMPIN], the minimum inhibitory concentration (MIC) in test [1] was 0.2 µg/mL (≈ 0.243 µM); in test [2], 0.1 µg/mL (≈ 0.122 µM); in test [3], above 25 µg/mL.

On to `NNC(=O)c1ccncc1` [ISONIAZID], for which the minimal inhibitory concentration (MIC) in test [1] was above 25 µg/mL; in test [2], 0.1 µg/mL (≈ 0.729 µM); in test [3], 0.05 µg/mL (≈ 0.365 µM).

As for `C=CCN(C)CCCCCCCCOc1ccc(C(=O)c2ccc(Cl)cc2)c(O)c1`, the values for the minimum inhibitory concentration (MIC) in test [1], in test [2] and in test [3] were 1.5 µg/mL (≈ 3.49 µM), 3.1 µg/mL (≈ 7.21 µM) and 1.5 µg/mL (≈ 3.49 µM), respectively.
